According to PubChem BioAssay AID2060330 (Molecular Pharmacology Branch, DTP, NCI, 2025):

Test system: LG0703-F948-PDC spheroids with HUVEC/MSC, viability
Experiment: Anticancer human tumor LG0703-F948-PDC patient-derived lung adenocarcinoma cell line growth inhibition [IpAb]
Conditions: for IC50: curve of first compound; for viability, T/C: stronger effect = lower value
How it was run: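 Combinations with ipatasertib or abemaciclib were tested on tumour spheroids holding HUVEC (25%) and MSC (15%) alongside 60% malignant cells. Top concentration was at or near clinical Cmax (10 microM if undefined), descending in half-log steps.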

[1] = second compound 0.01 µM, first compound 0.0316 µM
[2] = second compound 0.01 µM, first compound 0.1 µM
[3] = second compound 0.01 µM, first compound 0.316 µM
[4] = second compound 0.01 µM, first compound 1 µM
[5] = second compound 0.01 µM, first compound 3.16 µM
[6] = second compound 0.01 µM, first compound 10 µM
[7] = second compound 0.0316 µM, first compound 0.0316 µM
[8] = second compound 0.0316 µM, first compound 0.1 µM
[9] = second compound 0.0316 µM, first compound 0.316 µM
[10] = second compound 0.0316 µM, first compound 1 µM
[11] = second compound 0.0316 µM, first compound 3.16 µM
[12] = second compound 0.0316 µM, first compound 10 µM
[13] = second compound 0.1 µM, first compound 0.0316 µM
[14] = second compound 0.1 µM, first compound 0.1 µM
[15] = second compound 0.1 µM, first compound 0.316 µM
[16] = second compound 0.1 µM, first compound 1 µM
[17] = second compound 0.1 µM, first compound 3.16 µM
[18] = second compound 0.1 µM, first compound 10 µM
[19] = second compound 0.316 µM, first compound 0.0316 µM
[20] = second compound 0.316 µM, first compound 0.1 µM
[21] = second compound 0.316 µM, first compound 0.316 µM
[22] = second compound 0.316 µM, first compound 1 µM
[23] = second compound 0.316 µM, first compound 3.16 µM
[24] = second compound 0.316 µM, first compound 10 µM
[25] = second compound 1 µM, first compound 0.0316 µM
[26] = second compound 1 µM, first compound 0.1 µM
[27] = second compound 1 µM, first compound 0.316 µM
[28] = second compound 1 µM, first compound 1 µM
[29] = second compound 1 µM, first compound 3.16 µM
[30] = second compound 1 µM, first compound 10 µM
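Note: spheroids exposed to compounds for seven days before readout.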
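Throughout, for viability, T/C: T/C percent relative to DMSO vehicle wells set as 100% viability.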

Compound `CC1(C)CCC(CN2CCN(c3ccc(C(=O)NS(=O)(=O)c4ccc(NCC5CCOCC5)c([N+](=O)[O-])c4)c(Oc4cnc5[nH]ccc5c4)c3)CC2)=C(c2ccc(Cl)cc2)C1` + CCN1CCN(Cc2ccc(Nc3ncc(F)c(-c4cc(F)c5nc(C)n(C(C)C)c5c4)n3)nc2)CC1 has an IC50 (second compound 0.01 µM) of 5.08 µM, an IC50 (second compound 0.0316 µM) of 5 µM and an IC50 (second compound 0.1 µM) of 4.92 µM. It also gave an IC50 (second compound 0.316 µM) of 4.12 µM, an IC50 (second compound 1 µM) of 1.29 µM and a viability, T/C [1] of 102%. The viability, T/C [2] was 100%, the viability, T/C [3] was 100% and the viability, T/C [4] was 87.2%. It also gave a viability, T/C [5] of 77.9%, a viability, T/C [6] of 13.5% and a viability, T/C [7] of 81.8%. The viability, T/C [8] was 102%, the viability, T/C [9] was 84.3% and the viability, T/C [10] was 91%. The viability, T/C [11] was 75.3%, the viability, T/C [12] was 11.4% and the viability, T/C [13] was 92.4%. For the same compound, the viability, T/C [14] was 86.8%, the viability, T/C [15] was 72.3% and the viability, T/C [16] was 88.5%. It also gave a viability, T/C [17] of 73.8%, a viability, T/C [18] of 11.3% and a viability, T/C [19] of 87.9%. The viability, T/C [20] was 88.8%, the viability, T/C [21] was 79.9% and the viability, T/C [22] was 79%. For the same compound, the viability, T/C [23] was 62.6%, the viability, T/C [24] was 11.1% and the viability, T/C [25] was 85%. The viability, T/C [26] was 79%, the viability, T/C [27] was 46.9% and the viability, T/C [28] was 65.8%. The viability, T/C [29] was 36.9% and the viability, T/C [30] was 2.51%.

`CCCS(=O)(=O)Nc1ccc(F)c(C(=O)c2c[nH]c3ncc(-c4ccc(Cl)cc4)cc23)c1F` + CCN1CCN(Cc2ccc(Nc3ncc(F)c(-c4cc(F)c5nc(C)n(C(C)C)c5c4)n3)nc2)CC1 was tested, and the IC50 (second compound 0.01 µM) was over 10 µM, the IC50 (second compound 0.0316 µM) was over 10 µM and the IC50 (second compound 0.1 µM) was over 10 µM. The IC50 (second compound 0.316 µM) was over 10 µM, the IC50 (second compound 1 µM) was over 10 µM and the viability, T/C [1] was 112%. For the same compound, the viability, T/C [2] was 115%, the viability, T/C [3] was 101% and the viability, T/C [4] was 99.1%. The viability, T/C [5] was 100%, the viability, T/C [6] was 59.5% and the viability, T/C [7] was 94.5%. For the same compound, the viability, T/C [8] was 86.9%, the viability, T/C [9] was 95.1% and the viability, T/C [10] was 89.5%. The viability, T/C [11] was 90.9%, the viability, T/C [12] was 67.2% and the viability, T/C [13] was 91%. For the same compound, the viability, T/C [14] was 81.6%, the viability, T/C [15] was 91.7% and the viability, T/C [16] was 90.9%. For the same compound, the viability, T/C [17] was 87.2%, the viability, T/C [18] was 59.1% and the viability, T/C [19] was 89%. The viability, T/C [20] was 97.3%, the viability, T/C [21] was 76.6% and the viability, T/C [22] was 88.1%. For the same compound, the viability, T/C [23] was 79%, the viability, T/C [24] was 51.5% and the viability, T/C [25] was 90.6%. For the same compound, the viability, T/C [26] was 68.2%, the viability, T/C [27] was 52.5% and the viability, T/C [28] was 80%. For the same compound, the viability, T/C [29] was 75.6% and the viability, T/C [30] was 44.8%.

For `Cn1cnc2c(F)c(Nc3ccc(Br)cc3Cl)c(C(=O)NOCCO)cc21` + CCN1CCN(Cc2ccc(Nc3ncc(F)c(-c4cc(F)c5nc(C)n(C(C)C)c5c4)n3)nc2)CC1, the IC50 (second compound 0.01 µM) was 0.27 µM, the IC50 (second compound 0.0316 µM) was 0.132 µM and the IC50 (second compound 0.1 µM) was 0.0541 µM. For the same compound, the IC50 (second compound 0.316 µM) was 0.288 µM, the IC50 (second compound 1 µM) was 0.0416 µM and the viability, T/C (second compound 0.01 µM, first compound 0.00949 µM) was 83%. The viability, T/C (second compound 0.01 µM, first compound 0.03 µM) was 74.6%, the viability, T/C (second compound 0.01 µM, first compound 0.0949 µM) was 55.4% and the viability, T/C (second compound 0.01 µM, first compound 0.3 µM) was 52.6%. For the same compound, the viability, T/C (second compound 0.01 µM, first compound 0.949 µM) was 46.7%, the viability, T/C (second compound 0.01 µM, first compound 3 µM) was 45% and the viability, T/C (second compound 0.0316 µM, first compound 0.00949 µM) was 80.4%. For the same compound, the viability, T/C (second compound 0.0316 µM, first compound 0.03 µM) was 61.5%, the viability, T/C (second compound 0.0316 µM, first compound 0.0949 µM) was 51.9% and the viability, T/C (second compound 0.0316 µM, first compound 0.3 µM) was 46.2%. It also gave a viability, T/C (second compound 0.0316 µM, first compound 0.949 µM) of 46.1%, a viability, T/C (second compound 0.0316 µM, first compound 3 µM) of 39.8% and a viability, T/C (second compound 0.1 µM, first compound 0.00949 µM) of 68.8%. It also gave a viability, T/C (second compound 0.1 µM, first compound 0.03 µM) of 54.5%, a viability, T/C (second compound 0.1 µM, first compound 0.0949 µM) of 43.9% and a viability, T/C (second compound 0.1 µM, first compound 0.3 µM) of 44.1%. For the same compound, the viability, T/C (second compound 0.1 µM, first compound 0.949 µM) was 45.2%, the viability, T/C (second compound 0.1 µM, first compound 3 µM) was 37% and the viability, T/C (second compound 0.316 µM, first compound 0.00949 µM) was 72.7%. The viability, T/C (second compound 0.316 µM, first compound 0.03 µM) was 64.9%, the viability, T/C (second compound 0.316 µM, first compound 0.0949 µM) was 48% and the viability, T/C (second compound 0.316 µM, first compound 0.3 µM) was 54.4%. The viability, T/C (second compound 0.316 µM, first compound 0.949 µM) was 48.8%, the viability, T/C (second compound 0.316 µM, first compound 3 µM) was 41.7% and the viability, T/C (second compound 1 µM, first compound 0.00949 µM) was 70.1%. For the same compound, the viability, T/C (second compound 1 µM, first compound 0.03 µM) was 53.6%, the viability, T/C (second compound 1 µM, first compound 0.0949 µM) was 38.4% and the viability, T/C (second compound 1 µM, first compound 0.3 µM) was 44%. The viability, T/C (second compound 1 µM, first compound 0.949 µM) was 39.2% and the viability, T/C (second compound 1 µM, first compound 3 µM) was 41.5%.
